Legend:
[1] = Calf study: body weight change and fecal scores; assay type: in vivo, calves; conditions: mean ±SE
Procedure: Three days after they were born, calves were started on all milk, milk replacer. The calves were assigned randomly to one of four treatment groups control, β-glucan, Vitamin C, and β-glucan and Vitamin C. Each treatment is represented in a block (1 block has 4 calves and each room has 3 blocks). Initial weight and temperature were taken when calves were placed on study, then weekly for six more weeks.
Fecal scores, nasal and ocular discharges were recorded daily along with room temperature and humidity. Blood samples were taken every week for seven weeks; 10 ml heparinized tube for plasma to measure cortisol and ascorbic acid; 5 ml sodium citrate tube for hematocrits, granulocytes, lymphocytes and fibrinogen.
Calves were fed milk replacer equaling 10% of their body weight per day, which was given in two equal rations (morning and afternoon). Dry milk replacer was equal to 12.5% of amount fed. Calves on treatment […] were given β-glucan equaling 0.3125% of total intake. Calves on treatment 3 and 4 received 250 mg of Vitamin C twice a day.

[2] = test system: serum cortisol (CS), ACTH and tumor necrosis factor-alpha (TNF); test: Porcine study: serum ACTH, cortisol and TNF, basal and after I.V. LPS challenge; assay type: in vivo, pigs; conditions: I.V. LPS 150 ug/kg, day 14 postweaning
Excerpt: The objective of this study was to evaluate the potential benefit of supplementing the neonatal pig with Vitamin C (VC) and/or Beta-glucan (BG). Thirty-two crossbred pigs were selected at birth and assigned to one of four dietary treatment groups (n=8/group). Beginning on the day of birth, pigs received their respective treatments via an oral gavage on a daily basis until weaning at 2 weeks of age. Dietary treatment groups included Control (Con; no VC or BG), VC (75 ppm), BG (0.312 g/kg body weight) and VC+BG (75 ppm and 0.312 g/kg body weight). After weaning, pigs were placed on a starter ration containing their respective dietary treatments and a Phase 1 diet specific for the University of Missouri Swine unit for a 2 week period. Body weights were recorded every 3 days to adjust dietary treatment doses. On day 14 postweaning, blood samples were collected at 30-min intervals for one hour followed by an I.V. injection of lipopolysaccharide (LPS; 150 ug/kg). LPS is part of bacterial cell walls that initiates the immune response. Blood samples were collected at 30-min intervals for an additional 3-hour period following the LPS challenge. Blood samples were analyzed for serum cortisol (CS), ACTH and tumor necrosis factor-alpha (TNF) which are indicators of acute stress response to challenge (LPS).

Molecule | Mean BW change ([1]; dairy calves on milk replacer) | mean fecal scores ([1]; scale of 1–4, 1=solid and 4=fluid) | TNF response to the LPS challenge [2] | CS response to the LPS challenge ([2]; compared to Con group)
ascorbyl-2-polyphosphonate [AA] | 1.48±0.12 kg/wk | 1.48±0.03 |  | 
O=C1O[C@H]([C@@H](O)CO)C(O)=C1O [VC, ascorbic acid] |  |  | more rapid decline in serum TNF | lower

Reference: patent publication US6939864B1, “Animal feed compositions and methods of using the same” (Purdue Research Foundation, priority 2001, dated 2005)
